From patent US9067989B2, “Eotaxin-2 (CCL24) inhibitors in inflammatory, autoimmune, and cardiovascular disorders” (THE MEDICAL RESEARCH, INFRASTRUCTURE, AND HEALTH SERVICES …, priority 2009, dated 2015)

System: adjuvant induced arthritis
Test: Adjuvant induced arthritis in Lewis rats
Type: in vivo, rat
Settings: D8 100 μg 3x/week, methotrexate 0.25 mg/kg once weekly, from day 3, compared to PBS
Method: Adjuvant arthritis was induced in Lewis rats (six-week-old male Lewis rats obtained from Harlan, Israel) by injection of […]. […] was prepared by suspending heat-killed Mycobacterium Tuberculosis (Difco, Detroit, Mich.) in mineral oil at 10 mg/ml. Rats were injected intradermally with 100 μl adjuvant at the base of the tail. Arthritis developed by day 10 post injection.
Rats (8 per group) were treated by intraperitoneal (IP) injection with 3 monoclonal antibodies against eotaxin-2, (G7, G8, D8) 3×/week. Controls were treated with total mouse (non specific) IgG or PBS. Injections were started on the third day after adjuvant administration and were performed three times a week until the rats were sacrificed. […]
Arthritis severity was evaluated by measuring body weight, paw swelling, arthritic score and whole animal mobility. […]
Body weight in grams was measured every other day as an indicator of systemic inflammation.
Evaluation of Paw swelling. Ankle and wrist diameter in mm (to one place after the decimal point) were recorded three times a week using a caliper. […]
Finger and toe swelling was recorded according to their partial contribution: Ankles (feet): each toe scored 0.2; Wrist: each finger scored 0.25 Sum of all joints was calculated.
Whole animal Mobility was scored between 0-4, according to the following definitions: […]

CN(Cc1cnc2nc(N)nc(N)c2n1)c1ccc(C(=O)N[C@@H](CCC(=O)O)C(=O)O)cc1 [methotrexate]
protection against development of arthritis (arthritic score), prevention mode: significant, comparable protection | protection against development of arthritis (arthritic score), prevention mode (listed as MTX): statistically significant effect (p<0.05)
